Key:
pancreatic elastase = target: T1, pancreatic elastase (Sus scrofa, UniProt P00772); assay: Antielastase activity in sections of human skin explant (intact elastic fibers, image analysis); assay type: biochemical; conditions: for % Inhibition of the elastase activity: elastase 5 IU/ml, 3 hours, 37° C.; for Inhibition (of elastase, graded 0 to +++): Table 8
T1 construct: purchased Sigma E0258
From the text: The study of the antielastase activity represents a good indication of skin aging since it is now well known that the degradation of the elastic fibers present in the dermis involves endogenous elastases. The test used makes it possible to study the antielastase activity in vitro in sections of human skin explant. An application of purified elastase on a limited portion of the section is accompanied by degradation of the endogenous elastic fibers. The elastic fibers are stained with (+)-catechin. The percentage of intact elastic fibers per optical field is evaluated by image analysis. A product having antielastase activity makes it possible to preserve the integrity of the elastic fibers in the presence of purified elastase.
A pancreatic elastase (type IV, reference E0258, Sigma) is used. The medium for incubation of the human skin sections ("vehicle") is 0.1 M Herpes buffer, adjusted to pH 7.5 with sodium hydroxide containing 0.1 M sodium chloride.
The skin sections are produced from surgical waste collected after abdominal plastic surgery. The donor was a person. Explants of 1 cm in diameter are produced and they are deposited on a cork support and they are frozen at -80° C. Transverse sections 6 µm thick are produced with a cryomicrotome. The sections are fixed on glass slides and maintained hydrated with the vehicle during the test.
The test products are tested at 0.5; 1 and 5% (v/v) in the vehicle.
The elastatinal is tested at 0.01 and 0.1% (w/v) in the vehicle.
The mercuric chloride is tested at 0.025 and 0.125% (w/v) in the vehicle.
The dilutions of the test products and of the reference products are deposited on the skin sections in an amount of 100 μl per section (0.32 cm^2 in surface area), and preincubated for ten minutes at 37° C. Filter paper strips (0.16 cm^2 in surface area) impregnated with the vehicle alone (control vehicle) or containing pancreatic elastase at 5 international units (IU)/ml (control enzyme) are deposited on the sections. The slides are placed in a humid chamber at 37° C. for three hours.
After incubation, the sections are rinsed with the incubation medium and stained with (+)-catechin. The activity of the enzyme in the absence and in the presence of the test products or of the reference products is evaluated by image analysis: the image of the stained sections is digitized on a video screen; a software for image analysis makes it possible to measure the amounts of gray in the binary images; the surface area occupied by the intact elastic fibers is measured. The results are expressed as percentage of intact elastic fibers per optical field.
The percentage inhibition of the elastase activity of the test products and of the reference products is calculated with the aid of the following formula: [formula]
The antielastase activity is determined under the conditions indicated in IV above.

plasmid DNA (pBS) = assay: 3-D test: protection of adsorbed plasmid DNA against singlet oxygen generated by illuminated methylene blue; assay type: biochemical; conditions: for % Specific inhibition: methylene blue + light; for % Aspecific inhibition: on predamaged plasmid pBS^UV, absence of ROS
From the text: The test used is a biological system of detecting damage (3-D test) on DNA captured on a microplate (Analytical Biochemistry, 1995, 232, 37-42). The damage is recognized by the repair enzymes and repaired by purified cellular extracts. The repair of the lesions involves a phase for excision and then resynthesis of the damaged and excised DNA fragment. During the reparative synthesis stage, one or more modified nucleotides (digoxigenylated dUTP or DIG-11-dUTP) are incorporated into the DNA. These nucleotides are then recognized by anti-DIG antibodies coupled to alkaline phosphatase. An alkaline phosphatase substrate (Lumi-Phos 530) is then added and the luminescent signal emitted is measured by a luminometer (Lumax 2, marketed by the company S.F.R.I.). The intensity of the signal obtained depends on the different parameters (extracts, salt concentration, quantity of DNA, reaction time and the like) including that relating to the number of lesions repaired, and therefore of lesions present on the DNA. A dose-response relationship is observed within the limit of 1 to 15 lesions per 6 kilobases for most of the lesions.
This system is capable of repairing any type of lesion since all the enzymes for repairing DNA lesions are present and active in the extracts. The oxidative damage is therefore recognized in this system.
The damage is caused by reactive oxygen species (ROS) by means of a system which induces the formation of lesions on the DNA adsorbed in a well, leading to the reading of a reparative synthesis signal. In the presence of a compound or of a mixture of compounds which make it possible to protect DNA as a result, for example, of antioxidant or anti-free radical properties, a decrease or even an elimination of the repair signal, a reflection of the quantity of lesions, is observed.
ROS ^1 O2, a powerful electrophile which has a very short life, is generated by illumination of methylene blue. It therefore reacts very rapidly with the bases in the DNA and produces various types of damage such as modification of bases or loss of bases, which are very genotoxic.
Ultrapurified plasmid DNA (pBS) (predominantly supercoiled form) is placed in contact with the wells sensitized by poly-lysine for 30 minutes at 30° C., with gentle shaking, at a concentration of 1 μg/ml in a volume of 50 μl. Under these conditions, the adsorption of the DNA is quantitative (about 40 ng per well).
A positive control for repair, consisting of a plasmid predamaged by UV-C (called pBS^UV), is added.
After incubation, the wells are washed twice with a solution of PBS supplemented with 0.1% Tween 20.
A stock solution of methylene blue at 10 μg/ml is diluted to a concentration of 4 ng/ml in ultrapure water (MilliQ quality from Millipore).
This solution is mixed in an equal volume with various dilutions of the samples, and 50 μl of the mixture (at 2 ng/ml of methylene blue) are added to the wells containing the adsorbed plasmid DNA. The wells are placed on ice and illuminated for 20 minutes with 2 lamps of 100 W, 30 cm apart.
The four samples were tested at 3 dilutions.
The dilutions were made 2X, in propylene glycol, in order to obtain the desired dilutions after addition of a volume of methylene blue solution of 4 ng/ml.
In order to check that the decrease in the repair signal is not aspecific, the same dilutions (IX) are incubated under the same conditions on pBS^UV. […] An inhibition of the control repair signal for pBS^UV can, for example, be explained by a direct interaction of the sample with the DNA which blocks access of the lesions to the repair enzymes.
These different dilutions were incubated on the nondamaged DNA (pBS) and illuminated in the absence of methylene blue. This test makes it possible to check that the product tested is not genotoxic.
They are expressed as the percentage residual repair inhibition. The 0% value corresponds to the repair signal under the condition of methylene blue treatment alone. […]

[1] = tested on: human epidermal keratinocytes; assay: Anti-free radical activity: hydroperoxides by fluorometry in UVA-irradiated keratinocytes; assay type: cell-based; conditions: Keratinocyte, light or radiation study, 1.5 h, 0.1% (w/v), UVA 90 minutes (10 J/cm^2), read-out: % protection
From the text: The cells are human epidermal keratinocytes. […] The cells are used at the sixth passage, they are inoculated at 1×10^5 cells per well into 6-well culture plates. They are used at confluence.
It is quantified by a fluorometric method which detects the quantity of hydroperoxides which are metabolites of free radicals. An appropriate probe which converts to a fluorescent derivative in their presence is used, according to the method described by Keston A. S. and Brandt R. (The fluorometric analysis of ultramicro quantities of hydrogen peroxide, Anal. Biochem. 11, 1965, 1-5).
The free radicals are generated at the cell culture level by irradiation with ultraviolet A rays. […]
After irradiation, the keratinocytes are lyzed by the action of ultrasound. The cellular lysates are transferred into 96-well plates and analyzed by fluorimetry with the aid of a plate analyzer (excitation: 355 nm, emission: 460 nm).
The results are expressed in fluorescence unit/culture well.
The percentage protection of the test products or of the reference products R1 and R2 was calculated with the aid of the following formula: [formula]
By convention, when the values measured in the presence of the test products or in the presence of the reference products were less than those of the "non-irradiated control", the percentage protection was expressed as 100%.

T1 sequence (P00772 27-266): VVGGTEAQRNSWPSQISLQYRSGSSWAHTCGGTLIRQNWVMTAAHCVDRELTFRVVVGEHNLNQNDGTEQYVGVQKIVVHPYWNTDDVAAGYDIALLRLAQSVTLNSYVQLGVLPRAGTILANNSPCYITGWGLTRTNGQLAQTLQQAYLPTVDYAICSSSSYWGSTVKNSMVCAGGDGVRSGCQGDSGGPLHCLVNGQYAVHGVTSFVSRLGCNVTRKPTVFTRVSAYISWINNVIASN

| SMILES | % Specific inhibition (plasmid DNA (pBS); 0.01%) | % Aspecific inhibition (plasmid DNA (pBS); 0.01%) | protective properties on DNA towards singlet oxygen (in words) (plasmid DNA (pBS); 0.01 to 1%) | % Specific inhibition (plasmid DNA (pBS); 0.1%) | % Aspecific inhibition (plasmid DNA (pBS); 0.1%) | % Specific inhibition (plasmid DNA (pBS); 1%) | % Aspecific inhibition (plasmid DNA (pBS); 1%) | further results |
| --- | --- | --- | --- | --- | --- | --- | --- | --- |
| CC(C)C[C@H](NC(=O)N[C@H](C(=O)N[C@@H](CCC(N)=O)C(=O)N[C@@H](C)C=O)[C@@H]1CCNC(=N)N1)C(=O)O [Elastatinal, elastatinal] |  |  |  |  |  |  |  | % Inhibition of the elastase activity (pancreatic elastase; 0.01% (w/v)): 71.5%; % Inhibition of the elastase activity (pancreatic elastase; 0.01% (w/v), listed as elastatinal): 71%; % Inhibition of the elastase activity (pancreatic elastase; 0.1% (w/v)): 59.9%; % Inhibition of the elastase activity (pancreatic elastase; 0.1% (w/v), listed as elastatinal): 60%; Inhibition (of elastase, graded 0 to +++) (pancreatic elastase; 0.1% (w/v)): strongly inhibits |
| [Cl][Hg][Cl] [Mercuric chloride, mercuric chloride] |  |  |  |  |  |  |  | % Inhibition of the elastase activity (pancreatic elastase; 0.025% (w/v)): 18.4%; % Inhibition of the elastase activity (pancreatic elastase; 0.025% (w/v), listed as mercuric chloride): 18%; % Inhibition of the elastase activity (pancreatic elastase; 0.125% (w/v)): 39.3%; % Inhibition of the elastase activity (pancreatic elastase; 0.125% (w/v), listed as mercuric chloride): 39%; Inhibition (of elastase, graded 0 to +++) (pancreatic elastase; 0.125% (w/v)): strongly inhibits |
| CC1=C(/C=C/C(C)=C/C=C/C(C)=C/C=C/C=C(C)/C=C/C=C(C)/C=C/C2=C(C)CCCC2(C)C)C(C)(C)CCC1 [Control, β-carotene] | 45% | 0% | does not exhibit a dose-effect | 53% | +2% | 45% | 0% | aspecific effect / aspecificity (in words) (plasmid DNA (pBS); 0.01 to 1%): does not show, on the other hand, aspecificity |
| CC(=O)Oc1c(C)c(C)c2c(c1C)CCC(C)(CCCC(C)CCCC(C)CCCC(C)C)O2 (centres unmarked) [Vitamin E acetate, vitamin E acetate] |  |  |  |  |  |  |  | inhibition at 0.1 % [1]: 65% |
| CC(O)CO (centres unmarked) [Propylene glycol, propylene glycol] | 0% | 2% | only very weak protective properties | 6% | 6% | 13% | 7% |  |

Source: US6146616A, “Antioxidant and/or antielastase composition based on lupine oil” (priority 1997, dated 2000)
